Assay results taken from patent US6355864B1, “Versatile rpL34 promoter elements and use thereof” (Battelle Memorial Institute, priority 1999, dated 2002).

How the values were obtained:
rpL34 promoter [1] = test: Response of rpL34 promoter constructs to wounding and plant hormones in leaf discs of transgenic tobacco; assay type: in vivo, Nicotiana tabacum; details: leaf discs of plants with −1500, m178 or Δ147; 1 μM 2,4-D or 5 μM BA in MS medium, 24 hr; versus wounding alone
Procedure: Fresh young leaves of independent transgenic tobacco were ground in lysis buffer (50 mM sodium phosphate, pH 7.0. 10 mM EDTA, 0.1% TritonX-100, 0.1% sarkosyl and 10 mM DTT). Tobacco protoplast protein was extracted in the same buffer by sonication on ice twice, 5 seconds each time. […] Approximately 5-10 μg of protein was incubated in the presence of 1 mM 4-methylumbelliferyl β-D-glucuronide in 100 μl of lysis buffer at 37 C. Samples from each reaction were taken at 0, 15, and 30 min intervals and the enzyme reaction was quenched in 0.2 M sodium carbonate (Na2CO3). The flurometer was calibrated with 100, 200, 300, and 400 nM 4-methylumbelliferon in 0.2M sodium carbonate.
Kanamycin resistant T1 seedlings, each containing a unique internally deleted rpL34 promoter, were selected and grown to maturity. Six leaf discs excised from the fourth leaf of each plant by paper punch were randomly pooled and incubated in MS medium with 5 μM BA, 1 μM 2,4-D or no plant hormone (wounding treatment) for 24 hr at room temperature. […] The leaf discs ground immediately after excision in protein extraction buffer served as non-wounded tobacco controls.

rpL34 promoter [2] = details: previous promoter analyses (Dai et al. 1996); on top of mechanical wounding; cited from earlier work

| SMILES | induced GUS activity (rpL34 promoter [1]) | rpL34 promoter activity (rpL34 promoter [2]) |
| --- | --- | --- |
| O=C(O)COc1ccc(Cl)cc1Cl [2,4-D, 2,4-dichlorophenoxyacetic acid] | induced higher GUS activity than wounding alone | further enhanced |
| c1ccc(CNc2ncnc3nc[nH]c23)cc1 [BA, benzyladenine] | induced higher GUS activity than wounding alone | further enhanced |
